Source: patent US20240158446A1, “CYCLIC COMPOUND HAVING SELECTIVE INHIBITORY ACTION ON KRAS OVER HRAS AND NRAS” (CHUGAI SEIYAKU KABUSHIKI KAISHA, priority 2021, published 2024)
pKd: −log10 of the molar value. *1 amine or outer side, *2 acyl side, *3 side chain or, on linkers, in order; H or OH if unused. Where a SMILES comes first, the peptide text is derived from it. Bridges are numbered along the chain shown (N, C = ends). [ ]: non-standard residue; d: D form. hPhe(3,5-F2-4-CF3) = N[C@@H](CCc1cc(F)c(C(F)(F)F)c(F)c1)C(=O)O; NPrPhe(4-CF3) = CCCN[C@@H](Cc1ccc(C(F)(F)F)cc1)C(=O)O; NMeGly(cPent) = CN[C@H](C(=O)O)C1CCCC1; X8 = C[C@@](N[*:1])(C(=O)[*:2])C1CC1; NMeD = CN[C@@H](CC(=O)O)C(=O)O; NMeL = CN[C@@H](CC(C)C)C(=O)O; Sar = CNCC(=O)O

Key:
[1] = biological target: GDP-bound KRAS wild-type protein (Homo sapiens, UniProt P01116); test: Binding to KRAS by surface plasmon resonance (SPR), Single Cycle Kinetics; conditions: SPR Single Cycle Kinetics, GDP-bound KRAS wild-type protein, 1:1 binding model; read-out: KRAS KD
Sequence of GDP-bound KRAS wild-type protein (P01116 whole entry): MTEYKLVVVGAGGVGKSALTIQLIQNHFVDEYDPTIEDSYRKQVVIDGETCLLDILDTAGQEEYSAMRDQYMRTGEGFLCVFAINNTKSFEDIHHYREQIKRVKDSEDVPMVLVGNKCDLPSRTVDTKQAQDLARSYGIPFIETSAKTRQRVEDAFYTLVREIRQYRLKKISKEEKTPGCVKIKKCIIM

[2] = biological target: GDP-bound HRAS wild-type protein (Homo sapiens, UniProt P01112); test: Binding to HRAS by surface plasmon resonance (SPR), Single Cycle Kinetics; conditions: SPR, GDP-bound HRAS wild-type protein vs GDP-bound KRAS wild-type protein
Sequence of GDP-bound HRAS wild-type protein (P01112 whole entry): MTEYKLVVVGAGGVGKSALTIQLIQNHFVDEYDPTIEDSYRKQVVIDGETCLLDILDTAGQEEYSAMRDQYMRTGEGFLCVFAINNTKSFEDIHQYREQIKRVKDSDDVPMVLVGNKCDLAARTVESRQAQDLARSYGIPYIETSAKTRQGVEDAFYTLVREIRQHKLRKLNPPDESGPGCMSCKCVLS

[3] = biological target: GDP-bound NRAS wild-type protein (Homo sapiens, UniProt P01111); test: Binding to NRAS by surface plasmon resonance (SPR), Single Cycle Kinetics; conditions: SPR, GDP-bound NRAS wild-type protein vs GDP-bound KRAS wild-type protein
Sequence of GDP-bound NRAS wild-type protein (P01111 whole entry): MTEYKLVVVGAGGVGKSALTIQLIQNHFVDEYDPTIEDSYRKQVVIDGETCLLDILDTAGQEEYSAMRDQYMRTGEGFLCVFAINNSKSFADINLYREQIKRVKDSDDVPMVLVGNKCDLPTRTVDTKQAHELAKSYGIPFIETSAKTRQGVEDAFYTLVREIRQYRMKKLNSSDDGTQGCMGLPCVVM

Row | SMILES | pKd [1] | HRAS/KRAS (ratio of KD value with respect to HRAS to KD value with respect to KRAS) [2] | NRAS/KRAS (ratio of KD value with respect to NRAS to KD value with respect to KRAS) [3]
1 | CCO[C@@H]1C[C@H]2C(=O)NC3(CCC3)C(=O)N(C)[C@@H](C3CCCC3)C(=O)N(C)[C@H](C(=O)N3CCOCC3)CC(=O)N(C)[C@@H](CC3CCCCC3)C(=O)N[C@@H]([C@@H](C)CC)C(=O)N(C)CC(=O)N(C)[C@H]3CCCCN(C3=O)[C@@H](Cc3ccc(C(F)(F)F)cc3)C(=O)N(C)CC(=O)N[C@@H](CCc3cc(F)c(C(F)(F)F)c(F)c3)C(=O)N2C1 [PP0716] | 10.26 | B (a compound having 3 or more and less than 10 is denoted as B) | C (A compound having a KD ratio of 0.1 or more and less than 3 is denoted as C)
2 | CCO[C@@H]1C[C@H]2C(=O)NC3(CCC3)C(=O)N(C)[C@@H](C3CCCC3)C(=O)N(C)[C@H](C(=O)N3CCOCC3)CC(=O)N(C)[C@@H](COC)C(=O)N[C@@H]([C@@H](C)CC)C(=O)N(C)CC(=O)N(C)[C@H]3CCCCN(C3=O)[C@@H](Cc3ccc(C(F)(F)F)cc3)C(=O)N(C)CC(=O)N[C@@H](CCc3cc(F)c(C(F)(F)F)c(F)c3)C(=O)N2C1 [PP0719] | 10.70 | B (a compound having 3 or more and less than 10 is denoted as B) | C (A compound having a KD ratio of 0.1 or more and less than 3 is denoted as C)
3 | CCO[C@@H]1C[C@H]2C(=O)NC3(CCC3)C(=O)N(C)[C@@H](C3CCCC3)C(=O)N(C)[C@H](C(=O)N3CCOCC3)CC(=O)N(C)[C@@H](CCOC)C(=O)N[C@@H]([C@@H](C)CC)C(=O)N(C)CC(=O)N(C)[C@H]3CCCCN(C3=O)[C@@H](Cc3ccc(C(F)(F)F)cc3)C(=O)N(C)CC(=O)N[C@@H](CCc3cc(F)c(C(F)(F)F)c(F)c3)C(=O)N2C1 [PP0720] | 10.44 | B (a compound having 3 or more and less than 10 is denoted as B) | C (A compound having a KD ratio of 0.1 or more and less than 3 is denoted as C)
4 | CCO[C@@H]1C[C@H]2C(=O)NC3(CCC3)C(=O)N(C)[C@@H](C3CCCC3)C(=O)N(C)[C@H](C(=O)N3CCOCC3)CC(=O)N(C)C[C@@H](C)C(=O)N[C@@H]([C@@H](C)CC)C(=O)N(C)CC(=O)N(C)[C@H]3CCCCN(C3=O)[C@@H](Cc3ccc(C(F)(F)F)cc3)C(=O)N(C)CC(=O)N[C@@H](CCc3cc(F)c(C(F)(F)F)c(F)c3)C(=O)N2C1 [PP0721] | 7.96 | B (a compound having 3 or more and less than 10 is denoted as B) | B (a compound having 3 or more and less than 10 is denoted as B)
5 | CCO[C@@H]1C[C@H]2C(=O)NC3(CC(C)(C)C3)C(=O)N(C)[C@@H](C3CCCC3)C(=O)N(C)[C@H](C(=O)N(C)C)CC(=O)N(C)[C@@H](C)C(=O)N[C@@H]([C@@H](C)CC)C(=O)N(C)CC(=O)N(C)[C@H]3CCCCCN(C3=O)[C@@H](Cc3ccc(C(F)(F)F)cc3)C(=O)N(C)CC(=O)N[C@@H](CCc3cc(F)c(C(F)(F)F)c(F)c3)C(=O)N2C1 [PP0723] | 9.33 | B (a compound having 3 or more and less than 10 is denoted as B) | B (a compound having 3 or more and less than 10 is denoted as B)
6 | CCO[C@@H]1C[C@H]2C(=O)NC3(CCC(F)(F)CC3)C(=O)N(C)[C@@H](C3CCCC3)C(=O)N(C)[C@H](C(=O)N(C)C)CC(=O)N(C)[C@@H](C)C(=O)N[C@@H]([C@@H](C)CC)C(=O)N(C)CC(=O)N(C)[C@H]3CCCCCN(C3=O)[C@@H](Cc3ccc(C(F)(F)F)cc3)C(=O)N(C)CC(=O)N[C@@H](CCc3cc(F)c(C(F)(F)F)c(F)c3)C(=O)N2C1 [PP0725] | 8.30 | B (a compound having 3 or more and less than 10 is denoted as B) | B (a compound having 3 or more and less than 10 is denoted as B)
7 | CCO[C@@H]1C[C@H]2C(=O)NC3(CC(C)(C)C3)C(=O)N(C)[C@@H](C3CCCC3)C(=O)N(C)[C@H](C(=O)N3CCOCC3)CC(=O)N(C)[C@@H](CC(C)C)C(=O)N[C@@H]([C@@H](C)CC)C(=O)N(C)CC(=O)N(C)[C@H]3CCCCCN(C3=O)[C@@H](Cc3ccc(C(F)(F)F)cc3)C(=O)N(C)CC(=O)N[C@@H](CCc3cc(F)c(C(F)(F)F)c(F)c3)C(=O)N2C1 [PP0726] | 8.96 | B (a compound having 3 or more and less than 10 is denoted as B) | B (a compound having 3 or more and less than 10 is denoted as B)
8 | CCO[C@@H]1C[C@H]2C(=O)NC3(CC=CC3)C(=O)N(C)[C@@H](C3CCCC3)C(=O)N(C)[C@H](C(=O)N3CCOCC3)CC(=O)N(C)[C@@H](CC(C)C)C(=O)N[C@@H]([C@@H](C)CC)C(=O)N(C)CC(=O)N(C)[C@H]3CCCCCN(C3=O)[C@@H](Cc3ccc(C(F)(F)F)cc3)C(=O)N(C)CC(=O)N[C@@H](CCc3cc(F)c(C(F)(F)F)c(F)c3)C(=O)N2C1 [PP0727] | 8.89 | B (a compound having 3 or more and less than 10 is denoted as B) | B (a compound having 3 or more and less than 10 is denoted as B)
9 | CCO[C@@H]1C[C@H]2C(=O)NC3(CCC(F)(F)CC3)C(=O)N(C)[C@@H](C3CCCC3)C(=O)N(C)[C@H](C(=O)N3CCOCC3)CC(=O)N(C)[C@@H](CC(C)C)C(=O)N[C@@H]([C@@H](C)CC)C(=O)N(C)CC(=O)N(C)[C@H]3CCCCCN(C3=O)[C@@H](Cc3ccc(C(F)(F)F)cc3)C(=O)N(C)CC(=O)N[C@@H](CCc3cc(F)c(C(F)(F)F)c(F)c3)C(=O)N2C1 [PP0728] | 7.96 | B (a compound having 3 or more and less than 10 is denoted as B) | B (a compound having 3 or more and less than 10 is denoted as B)
10 | CCO[C@@H]1C[C@H]2C(=O)NC3(CCC3)C(=O)N(C)[C@@H](C3CCCC3)C(=O)N(C)[C@H](C(=O)N(C)C)CC(=O)N(C)[C@@H](C)C(=O)N[C@@H]([C@H](C)CC)C(=O)N(C)CC(=O)N(C)[C@H]3CCCCN(C3=O)[C@@H](Cc3ccc(C(F)(F)F)cc3)C(=O)N(C)CC(=O)N[C@@H](CCc3cc(F)c(C(F)(F)F)c(F)c3)C(=O)N2C1 [PP0730] | 10.03 | C (A compound having a KD ratio of 0.1 or more and less than 3 is denoted as C) | C (A compound having a KD ratio of 0.1 or more and less than 3 is denoted as C)
11 | CC[C@H](C)[C@@H]1NC(=O)[C@H](CC)N(C)C(=O)C[C@@H](C(=O)N(C)C)N(C)C(=O)[C@H](C2CCCC2)N(C)C(=O)C2(CCC2)NC(=O)[C@@H]2C[C@H](N3CCC(F)(F)CC3)CN2C(=O)[C@H](CCc2cc(F)c(C(F)(F)F)c(F)c2)NC(=O)CN(C)C(=O)[C@H](Cc2ccc(C(F)(F)F)cc2)N2CCCCC[C@@H](C2=O)N(C)C(=O)CN(C)C1=O [PP0731] | 8.80 | B (a compound having 3 or more and less than 10 is denoted as B) | B (a compound having 3 or more and less than 10 is denoted as B)
12 | CC[C@H](C)[C@@H]1NC(=O)[C@H](CC)N(C)C(=O)C[C@@H](C(=O)N(C)C)N(C)C(=O)[C@H](C2CCCC2)N(C)C(=O)C2(CCC2)NC(=O)[C@@H]2C[C@H](N3CCC(F)(F)CC3)CN2C(=O)[C@H](CCc2cc(F)c(C(F)(F)F)c(F)c2)NC(=O)CN(C)C(=O)[C@H](Cc2ccc(C(F)(F)F)cc2)N2CCCC[C@@H](C2=O)N(C)C(=O)CN(C)C1=O [PP0732] | 10.41 | B (a compound having 3 or more and less than 10 is denoted as B) | C (A compound having a KD ratio of 0.1 or more and less than 3 is denoted as C)
13 | CC[C@H](C)[C@@H]1NC(=O)[C@H](CC)N(C)C(=O)C[C@@H](C(=O)N(C)C)N(CC)C(=O)[C@H](C2CCCC2)N(C)C(=O)C2(CCC2)NC(=O)[C@@H]2C[C@@H](N3CCC(F)(F)CC3)CN2C(=O)[C@H](CCc2cc(F)c(C(F)(F)F)c(F)c2)NC(=O)CN(C)C(=O)[C@H](Cc2ccc(C(F)(F)F)cc2)N2CCCC[C@@H](C2=O)N(C)C(=O)CN(C)C1=O [PP0733] | 9.11 | B (a compound having 3 or more and less than 10 is denoted as B) | B (a compound having 3 or more and less than 10 is denoted as B)
14 | CCCN1C(=O)CN(C)C(=O)CN(C)C(=O)[C@H]([C@@H](C)CC)NC(=O)[C@H](CC(C)C)N(C)C(=O)C[C@@H](C(=O)N(C)C)N(C)C(=O)[C@H](C2CCCC2)N(C)C(=O)[C@](C)(C2CC2)NC(=O)[C@@H]2CCCN2C(=O)[C@H](CCc2cc(F)c(C(F)(F)F)c(F)c2)NC(=O)CN(C)C(=O)[C@@H]1Cc1ccc(C(F)(F)F)cc1 [PP0734] ([NMeL]I[Sar][Sar][NPrPhe(4-CF3)][Sar][hPhe(3,5-F2-4-CF3)]P[X8][NMeGly(cPent)][NMeD]-NMe2; lactam N-11) | 9.42 | C (A compound having a KD ratio of 0.1 or more and less than 3 is denoted as C) | B (a compound having 3 or more and less than 10 is denoted as B)
